Experiment: molar heat capacity at constant pressure
Settings: 101.33 kPa, Crystal 2, Small (less than 1 g) adiabatic calorimetry

N.NS(=O)(=O)O [ammonium sulfamate]
Settings	molar heat capacity at constant pressure [J/K/mol]
5 K	0.003159
8.91 K	0.2228
9.15 K	0.2561
9.62 K	0.3293
9.86 K	0.3608
10 K	0.3908
10.36 K	0.4664
10.69 K	0.5138
11.01 K	0.5995
11.34 K	0.6668
11.67 K	0.7466
12.01 K	0.8356
12.34 K	0.9262
12.68 K	1.013
13.01 K	1.113
13.35 K	1.229
13.69 K	1.347
14.03 K	1.465
14.37 K	1.586
14.72 K	1.72
15 K	1.837
15.07 K	1.857
15.42 K	2
15.76 K	2.155
16.11 K	2.332
16.47 K	2.484
16.82 K	2.64
17.17 K	2.83
17.52 K	3.021
17.88 K	3.204
18.24 K	3.395
18.59 K	3.592
18.95 K	3.806
19.31 K	4.033
19.67 K	4.25
20 K	4.407
20.03 K	4.465
20.61 K	4.831
21.36 K	5.306
22.1 K	5.824
22.85 K	6.364
23.61 K	6.908
24.36 K	7.492
25 K	7.982
25.12 K	8.117
25.88 K	8.748
26.65 K	9.316
27.42 K	9.947
28.19 K	10.61
28.96 K	11.3
29.73 K	11.97
30 K	12.22
30.51 K	12.68
31.29 K	13.41
32.06 K	14.11
32.85 K	14.85
33.63 K	15.59
34.41 K	16.31
35 K	16.88
35.2 K	17.03
35.98 K	17.81
36.77 K	18.53
37.56 K	19.25
38.35 K	19.96
39.14 K	20.7
39.93 K	21.44
40 K	21.53
40.72 K	22.21
41.51 K	22.95
42.31 K	23.72
43.1 K	24.46
43.9 K	25.22
44.69 K	26
45 K	26.19
45.49 K	26.74
46.29 K	27.42
47.09 K	28.16
47.88 K	28.92
48.68 K	29.58
49.48 K	30.31
50 K	30.85
50.28 K	31.01
51.08 K	31.75
51.88 K	32.46
52.68 K	33.24
53.48 K	34.09
54.28 K	34.9
55 K	35.75
55.08 K	35.75
55.89 K	36.24
56.69 K	36.94
57.49 K	37.64
58.29 K	38.37
59.1 K	39.05
59.91 K	39.76
60 K	39.91
60.71 K	40.47
61.52 K	41.17
62.32 K	42.03
63.12 K	42.86
63.92 K	43.55
64.73 K	44.16
65 K	44.07
65.54 K	44.89
66.34 K	45.53
67.15 K	46.21
67.95 K	46.89
68.76 K	47.59
69.57 K	48.3
70 K	49.06
70.38 K	49.01
71.3 K	49.73
72.35 K	50.64
73.39 K	51.54
74.44 K	52.48
75 K	53.21
75.48 K	53.43
76.53 K	54.35
77.58 K	55.24
78.62 K	56.18
79.67 K	57.12
79.91 K	57.2
80 K	57.37
80.72 K	58.02
80.96 K	58.19
81.77 K	58.95
82.01 K	59.07
82.82 K	59.87
83.05 K	59.96
83.87 K	60.82
84.1 K	60.91
84.92 K	61.73
85.15 K	61.78
86.2 K	62.6
87.24 K	63.53
88.29 K	64.43
89.34 K	65.22
90 K	65.68
90.39 K	66.05
91.44 K	66.98
92.49 K	67.83
93.54 K	68.65
94.59 K	69.45
95.65 K	70.24
96.7 K	71.12
97.75 K	71.89
98.8 K	72.7
99.86 K	73.47
100 K	73.33
100.91 K	74.3
101.96 K	75.09
103.01 K	75.85
104.06 K	76.59
105.11 K	77.34
106.16 K	78.13
107.21 K	78.85
108.26 K	79.53
109.31 K	80.3
110 K	80.4
110.37 K	80.98
111.42 K	81.71
112.47 K	82.4
113.53 K	83.05
114.58 K	83.71
115.63 K	84.43
116.68 K	85.1
117.74 K	85.75
118.79 K	86.44
119.84 K	87.02
120 K	86.89
120.9 K	87.68
121.95 K	88.37
123 K	88.95
124.05 K	89.55
125.11 K	90.12
126.16 K	90.78
127.21 K	91.36
128.27 K	92.02
129.32 K	92.56
130 K	92.71
130.38 K	93.15
131.43 K	93.76
132.49 K	94.31
133.54 K	94.78
134.59 K	95.43
135.65 K	95.99
136.7 K	96.5
137.76 K	97.01
138.81 K	97.53
139.87 K	98.13
140 K	98.03
140.92 K	98.63
141.97 K	99.21
143.03 K	99.69
144.09 K	100.16
145.14 K	100.67
146.2 K	101.12
147.25 K	101.64
148.31 K	102.18
149.36 K	102.59
150 K	102.85
150.42 K	103.11
151.47 K	103.62
152.53 K	104.13
153.58 K	104.47
154.64 K	105.04
155.69 K	105.57
156.75 K	105.98
157.8 K	106.39
158.86 K	106.87
159.91 K	107.31
160 K	107.34
160.97 K	107.74
162.02 K	108.15
163.08 K	108.69
164.13 K	109.09
165.19 K	109.46
166.24 K	109.98
167.3 K	110.42
168.35 K	110.83
169.41 K	111.19
170 K	111.5
170.46 K	111.64
171.51 K	112.13
172.57 K	112.44
173.62 K	112.78
174.67 K	113.21
175.73 K	113.67
176.78 K	114.15
177.84 K	114.52
178.89 K	114.89
179.94 K	115.32
180 K	115.4
181 K	115.71
182.05 K	116.14
183.1 K	116.41
184.16 K	116.84
185.21 K	117.3
186.26 K	117.56

Reference: the NIST ThermoML archive (doi:10.1016/j.jct.2019.01.021)
